The source of these data is patent US20250115597A1, “TYK2 INHIBITORS AND COMPOSITIONS AND METHODS THEREOF” (LYNK PHARMACEUTICALS CO. LTD., priority 2021, published 2025).

The target of this assay is T1, Ba/F3-FL-TYK2-P760L cells (Homo sapiens, UniProt P29597, P760L, cells depend on it).
T1 construct: BaF3-FL-T2P760L (nM)
T1 sequence (P29597 whole entry P760L): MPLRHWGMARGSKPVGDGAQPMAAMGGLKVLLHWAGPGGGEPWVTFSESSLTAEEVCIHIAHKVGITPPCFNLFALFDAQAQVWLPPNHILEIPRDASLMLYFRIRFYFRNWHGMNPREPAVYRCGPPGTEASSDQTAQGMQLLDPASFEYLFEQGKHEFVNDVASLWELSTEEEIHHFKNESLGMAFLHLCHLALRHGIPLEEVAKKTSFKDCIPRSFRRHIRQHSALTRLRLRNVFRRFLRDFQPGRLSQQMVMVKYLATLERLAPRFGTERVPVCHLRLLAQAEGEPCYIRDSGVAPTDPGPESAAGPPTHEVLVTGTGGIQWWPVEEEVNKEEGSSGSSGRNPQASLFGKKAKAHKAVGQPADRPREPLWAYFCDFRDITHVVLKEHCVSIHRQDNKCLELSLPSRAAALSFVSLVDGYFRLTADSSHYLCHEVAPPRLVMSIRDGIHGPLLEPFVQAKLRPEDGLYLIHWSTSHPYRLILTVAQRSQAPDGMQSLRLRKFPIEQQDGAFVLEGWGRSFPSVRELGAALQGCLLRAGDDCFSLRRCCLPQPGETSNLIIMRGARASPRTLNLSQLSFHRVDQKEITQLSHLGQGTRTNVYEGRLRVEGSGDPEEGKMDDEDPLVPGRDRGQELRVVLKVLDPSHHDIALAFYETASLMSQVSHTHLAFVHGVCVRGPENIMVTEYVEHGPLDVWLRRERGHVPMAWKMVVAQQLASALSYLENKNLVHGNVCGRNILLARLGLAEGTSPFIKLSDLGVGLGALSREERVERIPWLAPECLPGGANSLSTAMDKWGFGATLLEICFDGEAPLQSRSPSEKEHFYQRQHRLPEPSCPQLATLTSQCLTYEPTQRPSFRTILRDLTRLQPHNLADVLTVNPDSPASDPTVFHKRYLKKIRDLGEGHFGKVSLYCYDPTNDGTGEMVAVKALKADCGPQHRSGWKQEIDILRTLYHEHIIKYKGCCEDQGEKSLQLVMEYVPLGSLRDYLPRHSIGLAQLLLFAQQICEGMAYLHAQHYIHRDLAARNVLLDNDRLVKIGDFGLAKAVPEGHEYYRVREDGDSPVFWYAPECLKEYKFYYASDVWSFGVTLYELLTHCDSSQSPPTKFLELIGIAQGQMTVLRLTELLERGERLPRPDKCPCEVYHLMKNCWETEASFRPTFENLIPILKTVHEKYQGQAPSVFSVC
Briefly: Anti-proliferative assay, Ba/F3-FL-TYK2-P760L cells (Cell-Titer Glo). It counts as cell-based. Particulars: 72 h, read-out: BaF3-FL-T2P760L IC50. On the procedure: Anti-Proliferative Assay Dimerization domain of Tel protein fused with JAK kinase domain was permanently transduced into Ba/F3 cells, whose proliferation is dependent on JAK activity in the absence of IL-3 induction. These engineered Ba/F3 cells (Ba/F3-FL-TYK2-[…], Ba/F3-TEL-TYK2 and Ba/F3-TEL-JAK2) were used to monitor JAK inhibitory activities of the compounds in the cellular. […] Cells were seeded at 2000/well of white flat bottom 96-well plates. The well containing medium only was used as background control. After 24 h growth, cells were treated with compounds. The test compounds were dissolved in DMSO to a stock concentration of 20 mM. 3-fold serially diluted compounds for 9 concentrations with top concentration of 20 μM was added into the each well. […] The cells continued to grow at 37° C. in 5% CO2 for 72 h after compound treatment. The viability was measured by cellular ATP determination using the Cell-Titer Glo luciferase reagent (Promega). The Luminescence value was recorded by a multi-label reader Envision (PerkinElmer).
`[2H]C([2H])([2H])NC(=O)c1cnc(NC(=O)C2CC2)cc1Nc1cnn2c1C(=O)N(CC(F)(F)F)CC2` [Example 46, 6-(Cyclopropanecarboxamido)-N-(methyl-d3)-4-((4-oxo-5-(2,2,2-trifluoroethyl)-4,5,6,7-tetrahydropyrazolo[1,5-a]pyrazin-3-yl)amino) nicotinamide]: the GI50 came out at 372 nM.

On to `COC(=O)c1cnc(NC(=O)C2CC2)cc1Nc1cnc2ccn(CC(F)(F)F)c(=O)n12` [Example 48, Methyl 6-(cyclopropanecarboxamido)-4-((5-oxo-6-(2,2,2-trifluoroethyl)-5,6-dihydroimidazo[1,2-c]pyrimidin-3-yl)amino)nicotinate], for which the GI50 turned out to be 3810 nM.

Consider `CNC(=O)c1cnc(NC(=O)C2CC2)cc1Nc1cn(C)c2ccn(C(C)C)c(=O)c12` [Example 50, 6-(Cyclopropanecarboxamido)-4-((5-isopropyl-1-methyl-4-oxo-4,5-dihydro-1H-pyrrolo[3,2-c]pyridin-3-yl)amino)-N-methylnicotinamide], for which the GI50 was determined as 371 nM.

In the case of `CCCn1ncc2ccc(Nc3cc(NC(=O)C4CC4)ncc3C(=O)NC)c(OC)c21` [Example 51, 6-(Cyclopropanecarboxamido)-4-((7-methoxy-1-propyl-1H-indazol-6-yl)amino)-N-methylnicotinamide], the GI50 worked out at 80.2 nM.

On to `[2H]C([2H])([2H])NC(=O)c1cnc(NC(=O)C2CC2)cc1Nc1nn(CCOC)c2ccn(CC(F)(F)F)c(=O)c12` [Example 54, 6-(Cyclopropanecarboxamido)-4-((1-(2-methoxyethyl)-4-oxo-5-(2,2,2-trifluoroethyl)-4,5-dihydro-1H-pyrazolo[4,3-c]pyridin-3-yl)amino)-N-(methyl-d3)nicotinamide], for which the GI50 stood at 1090 nM.

`CNC(=O)c1cnc(Nc2ccc(F)cn2)cc1Nc1cccc(C(F)(F)F)c1OC` [Example 55, 6-((5-Fluoropyridin-2-yl)amino)-4-((2-methoxy-3-(trifluoromethyl)phenyl)amino)-N-methylnicotinamide]: the GI50 turned out to be 627 nM.

Regarding `CNC(=O)c1cnc(Nc2ccc(F)cn2)cc1Nc1cccc(C2(F)CC2)c1OC` [Example 56, 4-((3-(1-Fluorocyclopropyl)-2-methoxyphenyl)amino)-6-((5-fluoropyridin-2-yl)amino)-N-methylnicotinamide], the GI50 stood at 285 nM.

`[2H]C([2H])([2H])NC(=O)c1cnc(Nc2cc(C)c(F)cn2)nc1Nc1cccc(-c2ncn(C)n2)c1OC` [Example 59, 2-((5-Fluoro-4-methylpyridin-2-yl)amino)-4-((2-methoxy-3-(1-methyl-1H-1,2,4-triazol-3-yl)phenyl)amino)-N-(methyl-d3)pyrimidine-5-carboxamide]: the GI50 was 1930 nM.

With `[2H]C([2H])([2H])NC(=O)c1cnc(Nc2ccn(C)n2)nc1Nc1cccc(-c2ncn(C)n2)c1OC` [Example 60, 4-((2-Methoxy-3-(1-methyl-1H-1,2,4-triazol-3-yl)phenyl)amino)-N-(methyl-d3)-2-((1-methyl-1H-pyrazol-3-yl)amino)pyrimidine-5-carboxamide], the GI50 is 1410 nM.

Turning to `[2H]C([2H])([2H])NC(=O)c1cnc(Nc2ccc(C)nn2)nc1Nc1cccc(-c2ncn(C)n2)c1OC` [Example 61, 4-((2-Methoxy-3-(1-methyl-1H-1,2,4-triazol-3-yl)phenyl)amino)-N-(methyl-d3)-2-((6-methylpyridazin-3-yl)amino)pyrimidine-5-carboxamide], the GI50 was determined as 3510 nM.

Consider `[2H]C([2H])([2H])NC(=O)c1cnc(Nc2cccc(C(F)(F)F)n2)nc1Nc1cccc(-c2ncn(C)n2)c1OC` [Example 62, 4-((2-Methoxy-3-(1-methyl-1H-1,2,4-triazol-3-yl)phenyl)amino)-N-(methyl-d3)-2-((6-(trifluoromethyl)pyridin-2-yl)amino)pyrimidine-5-carboxamide], for which the GI50 stood at 1180 nM.

As for `[2H]C([2H])([2H])NC(=O)c1cnc(Nc2ccc(F)cc2F)nc1Nc1cccc(-c2ncn(C)n2)c1OC` [Example 63, 2-((2,4-Difluorophenyl)amino)-4-((2-methoxy-3-(1-methyl-1H-1,2,4-triazol-3-yl)phenyl)amino)-N-(methyl-d3)pyrimidine-5-carboxamide], the GI50 stood at 796 nM.

As for `CNC(=O)c1cnc(NC(=O)C2CC2(F)F)nc1Nc1cccc(-c2ncn(C)n2)c1OC` (centres unmarked) [Example 64, 2-(2,2-Difluorocyclopropane-1-carboxamido)-4-((2-methoxy-3-(1-methyl-1H-1,2,4-triazol-3-yl)phenyl)amino)-N-methylpyrimidine-5-carboxamide], the GI50 turned out to be 2040 nM.

As for `[2H]C([2H])([2H])NC(=O)c1nnc2cc1Nc1cc(cc(-c3ccc(F)cc3)c1OC)COCc1nc(ccc1F)N2` [Example 73, 18-Fluoro-11-(4-fluorophenyl)-10-methoxy-N-(methyl-d3)-15-oxa-2,4,5,8,21-pentaazatetracyclo[15.3.1.1^{3,7}.1^{9,13}]tricosa-1(20),3,5,7(23),9(22),10,12,17(21),18-nonaene-6-carboxamide], the GI50 turned out to be 7980 nM.

Regarding `[2H]C([2H])([2H])NC(=O)c1nnc2cc1Nc1cc(cc(-c3ncc(F)cn3)c1OC)COCc1nc(ccc1F)N2` [Example 80, 18-Fluoro-11-(5-fluoropyrimidin-2-yl)-10-methoxy-N-(methyl-d3)-15-oxa-2,4,5,8,21-pentaazatetracyclo[15.3.1.1^{3,7}.1^{9,13}]tricosa-1(20),3,5,7(23),9(22),10,12,17(21),18-nonaene-6-carboxamide], the GI50 came to 213 nM.

With `[2H]C([2H])([2H])NC(=O)c1cnc2nc1Nc1cc(cc(-c3ncn(C)n3)c1OC)COCc1cc(F)cc(n1)N2` [Example 81, 19-Fluoro-10-methoxy-N-(methyl-d3)-11-(1-methyl-1H-1,2,4-triazol-3-yl)-15-oxa-2,4,8,21,23-pentaazatetracyclo[15.3.1.1^{3,7}.1^{9,13}]tricosa-1(21),3,5,7(23),9(22),10,12,17,19-nonaene-6-carboxamide], the GI50 was determined as 330 nM.

`[2H]C([2H])([2H])NC(=O)c1cnc2cc1Nc1cc(cc(-c3ncn(C(C)C)n3)c1OC)COCc1cccc(n1)N2` [Example 84, 10-Methoxy-N-(methyl-d3)-11-[1-(propan-2-yl)-1H-1,2,4-triazol-3-yl]-15-oxa-2,4,8,21-tetraazatetracyclo[15.3.1.1^{3,7}.1^{9,13}]tricosa-1(21),3,5,7(23),9(22),10,12,17,19-nonaene-6-carboxamide]: the GI50 worked out at 676 nM.

On to `[2H]C([2H])([2H])NC(=O)c1nnc2cc1Nc1cc(cc(-c3ncn(C)n3)c1OC)CNCc1nc(ccc1F)N2` [Example 87, 18-Fluoro-10-methoxy-N-(methyl-d3)-11-(1-methyl-1H-1,2,4-triazol-3-yl)-2,4,5,8,15,21-hexaazatetracyclo[15.3.1.1^{3,7}.1^{9,13}]tricosa-1(20),3,5,7(23),9(22),10,12,17(21),18-nonaene-6-carboxamide], for which the GI50 amounted to 584 nM.

Turning to `[2H]C([2H])([2H])NC(=O)c1nnc2cc1Nc1cc(cc(-c3ncn(C4CC4)n3)c1OC)COCc1cc(F)cc(n1)N2` [Example 88, 11-(1-Cyclopropyl-1H-1,2,4-triazol-3-yl)-19-fluoro-10-methoxy-N-(methyl-d3)-15-oxa-2,4,5,8,21-pentaazatetracyclo[15.3.1.1^{3,7}.1^{9,13}]tricosa-1(21),3,5,7(23),9(22),10,12,17,19-nonaene-6-carboxamide], the GI50 was found to be 46.9 nM.

As for `[2H]C([2H])([2H])NC(=O)c1cnc2cc1Nc1cc(cc(-c3ncn(C4CC4)n3)c1OC)COCc1cc(F)cc(n1)N2` [Example 89, 11-(1-Cyclopropyl-1H-1,2,4-triazol-3-yl)-19-fluoro-10-methoxy-N-(methyl-d3)-15-oxa-2,4,8,21-tetraazatetracyclo[15.3.1.1^{3,7}.1^{9,13}]tricosa-1(21),3,5,7(23),9(22),10,12,17,19-nonaene-6-carboxamide], the GI50 amounted to 32.2 nM.

As to `[2H]C([2H])([2H])NC(=O)c1nnc2cc1Nc1cc(cc(-c3nnc(C)o3)c1OC)COCc1nc(ccc1F)N2` [Example 90, 18-Fluoro-10-methoxy-N-(methyl-d3)-11-(5-methyl-1,3,4-oxadiazol-2-yl)-15-oxa-2,4,5,8,21-pentaazatetracyclo[15.3.1.1^{3,7}.1^{9,13}]tricosa-1(20),3,5,7(23),9(22),10,12,17(21),18-nonaene-6-carboxamide], the GI50 turned out to be 126 nM.

Take `[2H]C([2H])([2H])NC(=O)c1nnc2cc1Nc1cc(cc(-c3ncn(C)n3)c1OC)CCC(O)c1nc(ccc1F)N2` (centres unmarked) [Example 92, 18-Fluoro-16-hydroxy-10-methoxy-N-(methyl-d3)-11-(1-methyl-1H-1,2,4-triazol-3-yl)-2,4,5,8,21-pentaazatetracyclo[15.3.1.1^{3,7}.1^{9,13}]tricosa-1(20),3,5,7(23),9(22),10,12,17(21),18-nonaene-6-carboxamide]: the GI50 worked out at 300 nM.

As for `[2H]C([2H])([2H])NC(=O)c1nnc2cc1Nc1cc(cc(-c3nc(C)co3)c1OC)COCc1nc(ccc1F)N2` [Example 93, 18-Fluoro-10-methoxy-N-(methyl-d3)-11-(4-methyl-1,3-oxazol-2-yl)-15-oxa-2,4,5,8,21-pentaazatetracyclo[15.3.1.1^{3,7}.1^{9,13}]tricosa-1(20),3,5,7(23),9(22),10,12,17(21),18-nonaene-6-carboxamide], the GI50 was found to be 97 nM.
